Test results published in US10457707B2, “Substituted urea depsipeptide analogs as activators of the CLPP endopeptidase” (priority 2015, dated 2019).
≈ marks a conversion by molar mass, not a printed value. *1 amine or outer side, *2 acyl side, *3 side chain or, on linkers, in order; H or OH if unused. Where a SMILES comes first, the peptide text is derived from it. Bridges are numbered along the chain shown (N, C = ends). [ ]: non-standard residue; d: D form. The star is where a group is joined. Phe(3,5-F2) = N[C@@H](Cc1cc(F)cc(F)c1)C(=O)O; Pro(4S-Me) = C[C@@H]1CN[C@H](C(=O)O)C1; Pro(4R-Me) = C[C@H]1CN[C@H](C(=O)O)C1; NH(4-Me-phenyl) = Cc1ccc(N*)cc1; aThr = C[C@H](O)[C@H](N)C(=O)O; Pip = O=C(O)[C@@H]1CCCCN1; X3 = Cn1ccc2ccc(N*)cc21; CO = O=C([*:1])[*:2]

Legend:
Assay type in all cases: cell-based
[1] = Cytotoxicity assay (CellTiter-Glo cell viability, 72 hours); conditions: African green monkey; Vero cells, 72 hours, growth inhibition; read-out: Cytotoxicity IC50
Description: Cytotoxicity was determined by determining the effect of compounds on cell viability. Vero (kidney epithelial cells; ATCC CCL-81) monolayers were trypsinized and 5000 cells/well were seeded (10-15% confluency) into white-wall, flat bottom 96 well microwell plates (Corning) using enriched Dulbecco's Modified Eagle's Medium (Hyclone:DMEM/High Glucose) containing 10% Fetal Bovine Serum (ATCC-30-2020). Plates were incubated overnight at 37° C. in the presence of 5% CO2. Drug-free media was then replaced with media containing serial dilutions of test compound or DMSO carrier. After an additional 72 hours of incubation, viability was indirectly measured using the CellTiter-Glo® Luminescent Cell Viability (Promega) assay. Assay plates were read at peak emission wavelength of 560 nm using a EnVision® Multilabel Plate Reader (Perkin Elmer) or PHERAstar FS Multilabel reader (BMG, Cary, N.C.). […] USA, www.graphpad.com]. For each experiment, compounds were tested in duplicate. IC50 values presented are the range of two biologically independent experiments.

[2] = test system: Bacillus subtilis, ATCC 23857; assay: Minimal inhibitory concentration assay (microbroth dilution); conditions: Bacillus subtilis, ATCC23857, read-out: Minimal Inhibitory Concentrations B. subtilis ATCC 23857
Outline: (§1)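 Broth microdilution per CLSI M7-A7: two-fold serial dilutions of compound in broth (top final concentration 200 μM) were inoculated with ~10^5 cfu/mL bacteria and incubated aerobically overnight at 37 °C. MIC was read visually as the lowest concentration preventing growth.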

[3] = test system: Enterococcus faecalis, ATCC 33186; assay: as above; conditions: Enterococcus faecalis, ATCC33186, read-out: Minimal Inhibitory Concentrations E. faecalis ATCC 33186
Outline: as §1

[4] = test system: Staphylococcus aureus, ATCC 29213; assay: as above; conditions: ATCC29213, read-out: Minimal Inhibitory Concentrations S. aureus ATCC 29213
Outline: as §1

[5] = test system: Staphylococcus aureus, NRS70; assay: as above; conditions: Staphylococcus aureus, NRS70, read-out: Minimal Inhibitory Concentrations S. aureus NRS70
Outline: as §1

[6] = test system: Streptococcus pyogenes, ATCC 700294; assay: as above; conditions: Streptococcus pyogenes, ATCC700294, read-out: Minimal Inhibitory Concentrations S. pyogenes ATCC 700294
Outline: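 CLSI broth microdilution: two-fold serial compound dilutions in appropriate broth, inoculated and incubated aerobically overnight at 37° C. MIC read visually as lowest concentration preventing bacterial growth.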

[7] = test system: Staphylococcus aureus, USA 300 wherein ClpP is inactivated; assay: Minimal inhibitory concentration assay
Outline: as §1

[8] = test system: Staphylococcus aureus, USA 300; assay: Minimal inhibitory concentration assay; conditions: USA300, read-out: Minimal Inhibitory Concentrations S. aureus USA 300
Outline: as §1

SMILES | IC50 at 72 h [1] | MIC [2] | MIC [3] | MIC [4] | MIC [5] | MIC [6] | Minimal Inhibitory Concentrations S. aureus USA 300 ΔClpP [7] | MIC [8]
C[C@@H]1C[C@H]2C(=O)O[C@@H](C)[C@H](NC(=O)[C@H](Cc3cc(F)cc(F)c3)NC(=O)Nc3ccc4ccn(C)c4c3)C(=O)N3CCC[C@H]3C(=O)N3CCCC[C@H]3C(=O)N[C@@H](C)C(=O)N2C1 [Compound 306, (S)-3-(3,5-difluorophenyl)-2-(3-(1-methyl-1H-indol-6-yl)ureido)-N-((2R,6S,8aS,14aS,20S,21S,23aS)-2,6,21-trimethyl-5,8,14,19,23-pentaoxooctadecahydro-1H,5H,14H,19H-pyrido[2,1-i]dipyrrolo[2,1-c:2′,1′-l][1]oxa[4,7,10,13]tetraazacyclohexadecin-20-yl)propanamide] ({X3-CO}-[Phe(3,5-F2)][aThr]P[Pip]A[Pro(4R-Me)]; ester 2-C) | 11.8 ± 0.8 µM | 0.078 µM (≈ 0.0661 µg/mL) | 0.039 µM (≈ 0.033 µg/mL) | 0.156 µM (≈ 0.132 µg/mL) | 0.078 µM (≈ 0.0661 µg/mL) | 0.313 µM (≈ 0.265 µg/mL) | >20 µM | 0.156 µM (≈ 0.132 µg/mL)
Cc1ccc(NC(=O)N[C@@H](Cc2cc(F)cc(F)c2)C(=O)N[C@@H]2C(=O)N3CCC[C@H]3C(=O)N3CCCC[C@H]3C(=O)N[C@@H](C)C(=O)N3C[C@@H](C)C[C@H]3C(=O)O[C@H]2C)cc1 [Compound 200, (S)-3-(3,5-difluorophenyl)-2-(3-(p-tolyl)ureido)-N-((2R,6S,8aS,14aS,20S,21S,23aS)-2,6,21-trimethyl-5,8,14,19,23-pentaoxooctadecahydro-1H,5H,14H,19H-pyrido[2,1-i]dipyrrolo[2,1-c:2′,1′-l][1]oxa[4,7,10,13]tetraazacyclohexadecin-20-yl)propanamide] ({NH(4-Me-phenyl)-CO}-[Phe(3,5-F2)][aThr]P[Pip]A[Pro(4S-Me)]; ester 2-C) | 26.7 ± 3.6 µM | – | – | – | – | – | 100 µM | –
